Tests used:
[1] = AUC(0 to infinity) in mouse at 5 mg/kg measured upto 24 hrs by LC-MS/MS analysis; format: ADME, organism-based; parameters: dose 5 mg/kg, time < 24 hrs; conditions: in vivo
[2] = MRT in mouse at 5 mg/kg measured upto 24 hrs by LC-MS/MS analysis; format: ADME, organism-based; conditions: in vivo
[3] = AUC(0 to t) in mouse at 5 mg/kg measured upto 24 hrs by LC-MS/MS analysis; format: ADME, organism-based; parameters: time < 24 hrs, dose 5 mg/kg; conditions: in vivo
[4] = Cmax in mouse at 5 mg/kg measured upto 24 hrs by LC-MS/MS analysis; format: ADME, organism-based; parameters: time < 24 hrs, dose 5 mg/kg; conditions: in vivo
[5] = Half-life in mouse at 5 mg/kg measured upto 24 hrs by LC-MS/MS analysis; format: ADME, organism-based; conditions: in vivo
[6] = molecular target: Epidermal growth factor receptor (Homo sapiens, UniProt P00533, C797S/L858R/T790M); assay: Inhibition of EGFR L858R/T790M/C797S triple mutant (unknown origin) using TK as substrate incubated for 120 mins in the presence of ATP by HTRF assay
[7] = molecular target: Epidermal growth factor receptor (Homo sapiens, UniProt P00533, C797S/EX18DEL/T790M); assay: Inhibition of EGFR del18/T790M/C797S triple mutant (unknown origin) using TK as substrate incubated for 120 mins in the presence of ATP by HTRF assay
BaF3 = assay: Antiproliferative activity against mouse BaF3 cells harboring del18/T790M/C797S triple mutant assessed as cell growth inhibition incubated for 72 hrs by cell titre glo luminescence assay; format: functional, cell-based; conditions: BaF3, 72 h
A-431 = assay: Antiproliferative activity against human A-431 cells assessed as cell growth inhibition incubated for 72 hrs by cell titre glo luminescence assay; format: functional, cell-based; conditions: A-431, 72 h
[8] = molecular target: Epidermal growth factor receptor (Homo sapiens, UniProt P00533); assay: Inhibition of wild type EGFR (unknown origin) using TK as substrate incubated for 120 mins in the presence of ATP by HTRF assay
[9] = tested on: Epidermal growth factor receptor (Homo sapiens), P00533 [L858R,T790M,C797S]; assay: Potency index, ratio of brigatinib IC50 to test compound IC50 for inhibition of EGFR L858R/T790M/C797S triple mutant (unknown origin) using TK as substrate incubated for 120 mins in the presence of ATP by HTRF assay
[10] = tested on: Epidermal growth factor receptor (Homo sapiens), P00533 [UNDEFINED MUTATION]; assay: Potency index, ratio of brigatinib IC50 to test compound IC50 for inhibition of EGFR del18/T790M/C797S triple mutant (unknown origin) using TK as substrate incubated for 120 mins in the presence of ATP by HTRF assay

SMILES | AUC(0-inf) [1] | MRT [2] | AUC(0-t) at 24 h [3] | Cmax [4] | half-life [5] | IC50 [6] | IC50 [7] | IC50 (BaF3) | IC50 (A-431) | IC50 [8] | Ratio IC50 [9] | Ratio IC50 [10]
CCOC1CN(C2CCN(c3cc(OC)c(Nc4ncc(Br)c(Nc5ccc6nccnc6c5P(C)(C)=O)n4)cc3C)CC2)C1 | – | – | – | – | – | 0.43 nM | 0.65 nM | 29 nM | 422 nM | 652 nM | – | –
CCc1cc(Nc2ncc(Br)c(Nc3ccc4nccnc4c3P(C)(C)=O)n2)c(OC)cc1N1CCC(N2CCCN(C)CC2)CC1 | – | – | – | – | – | 0.27 nM | 0.83 nM | 9 nM | 490 nM | 3000 nM | – | –
CCN(C)C1CN(C2CCN(c3cc(OC)c(Nc4ncc(Br)c(Nc5ccc6c(c5P(C)(C)=O)OCCO6)n4)cc3C)CC2)C1 | – | – | – | – | – | 0.28 nM | – | 35 nM | – | > 500 nM | – | –
COc1cc(N2CCC(N3CC(N(C)C)C3)CC2)c(C)cc1Nc1ncc(Br)c(Nc2ccc3c(c2P(C)(C)=O)OCCO3)n1 | 16500 ng·h/mL | 6 h | 16400 ng·h/mL | 1680 ng/mL | 5.6 h | 0.22 nM | 0.3 nM | 13 nM | – | – | – | –
COc1cc(N2CCC(N3CCCOCC3)CC2)c(C)cc1Nc1ncc(Br)c(Nc2ccc3c(c2P(C)(C)=O)OCCO3)n1 | – | – | – | – | – | 0.19 nM | 0.13 nM | 20 nM | – | – | – | –
CCc1cc(Nc2ncc(Br)c(Nc3ccc4c(c3P(C)(C)=O)OCCO4)n2)c(OC)cc1N1CCC(N2CC(CC#N)C2)CC1 | – | – | – | – | – | 0.41 nM | 0.49 nM | 7 nM | – | 416 nM | – | –
CCOC1CN(C2CCN(c3cc(OC)c(Nc4ncc(Br)c(Nc5ccc6ncnn6c5P(C)(C)=O)n4)cc3CC)CC2)C1 | – | – | – | – | – | 0.67 nM | 0.9 nM | 44 nM | 1010 nM | > 500 nM | – | –
CCOC1CN(C2CCN(c3cc(OC)c(Nc4ncc(Br)c(Nc5ccc6c(c5P(C)(C)=O)OCCO6)n4)cc3C)CC2)C1 | 25300 ng·h/mL | 6.1 h | 25200 ng·h/mL | 2030 ng/mL | 3.2 h | – | – | 32 nM | – | – | – | –
CCO[C@@H]1CCN(C2CCN(c3cc(OC)c(Nc4ncc(Br)c(Nc5ccc6c(c5P(C)(C)=O)OCCO6)n4)cc3C)CC2)C1 | 11200 ng·h/mL | 5.5 h | 11100 ng·h/mL | 1260 ng/mL | 3.5 h | 0.41 nM | 0.28 nM | 30 nM | – | – | – | –
CCc1cc(Nc2ncc(Br)c(Nc3ccc4nccnc4c3P(C)(C)=O)n2)c(OC)cc1N1CCC(N2CC(N(C)C)C2)CC1 | – | – | – | – | – | 0.08 nM | 0.11 nM | 16 nM | – | – | 40 | 7
COc1cc(N2CCC(N3CCCN(C)CC3)CC2)c(C)cc1Nc1ncc(Br)c(Nc2ccc3c(c2P(C)(C)=O)OCCO3)n1 | – | – | – | – | – | 0.1 nM | 0.05 nM | 24 nM | – | – | – | –
CCc1cc(Nc2ncc(Br)c(Nc3ccn4ncnc4c3P(C)(C)=O)n2)c(OC)cc1N1CCC(N2CCN(CC)CC2)CC1 | – | – | – | – | – | 0.67 nM | 0.1 nM | 34 nM | 731 nM | > 500 nM | – | –

Now from value to molecule:

AUC(0-inf) [1] | MRT [2] | AUC(0-t) at 24 h [3] | Cmax [4] | half-life [5] | IC50 [6] | IC50 [7] | IC50 (BaF3) | IC50 (A-431) | IC50 [8] | Ratio IC50 [9] | Ratio IC50 [10] | SMILES
21400 ng·h/mL | 6.3 h | 21000 ng·h/mL | 2110 ng/mL | 4 h | 0.08 nM | 0.08 nM | 8 nM | – | – | – | – | CCc1cc(Nc2ncc(Br)c(Nc3ccc4c(c3P(C)(C)=O)OCCO4)n2)c(OC)cc1N1CCC(N2CC(N(C)C)C2)CC1
– | – | – | – | – | 0.93 nM | 0.18 nM | 40 nM | 1300 nM | > 500 nM | – | – | CCc1cc(Nc2ncc(Br)c(Nc3ccn4ncnc4c3P(C)(C)=O)n2)c(OC)cc1N1CCC(N2CCOCC2)CC1
12500 ng·h/mL | 6 h | 12300 ng·h/mL | 1470 ng/mL | 4.2 h | 0.15 nM | 0.4 nM | 14 nM | – | – | – | – | CCc1cc(Nc2ncc(Br)c(Nc3ccc4c(c3P(C)(C)=O)OCO4)n2)c(OC)cc1N1CCC(N2CC(N(C)C)C2)CC1
– | – | – | – | – | 0.15 nM | 0.12 nM | 28 nM | – | – | – | – | COc1cc(N2CCC(N3CC[C@H](N(C)C)C3)CC2)c(C)cc1Nc1ncc(Br)c(Nc2ccc3c(c2P(C)(C)=O)OCCO3)n1
– | – | – | – | – | 0.12 nM | 0.15 nM | 12 nM | – | – | – | – | CCc1cc(Nc2ncc(Br)c(Nc3ccc4c(c3P(C)(C)=O)OCCO4)n2)c(OC)cc1N1CCC(N2CC(COC)C2)CC1
– | – | – | – | – | 0.09 nM | 0.06 nM | 13 nM | – | – | – | – | COc1cc(N2CCC(N3CC(N(C)C)C3)CC2)c(C)cc1Nc1ncc(Br)c(Nc2ccc3nccnc3c2P(C)(C)=O)n1
– | – | – | – | – | 0.84 nM | 0.1 nM | 37 nM | 702 nM | > 500 nM | – | – | CCc1cc(Nc2ncc(Br)c(Nc3ccc4ncnn4c3P(C)(C)=O)n2)c(OC)cc1N1CCC(N2CC(COC)C2)CC1

Reference: ChEMBL document CHEMBL5113487, “Novel anilinopyrimidine derivatives as potential EGFRT790M/C797S Inhibitors: Design, Synthesis, biological activity study” (Bioorg Med Chem, 2022)
